One compound from patent publication US20170209579A1, “NON-INVASIVE RADIOFREQUENCY FIELD TREATMENT FOR CANCER THERAPY” (Baylor College of Medicine, priority 2014, published 2017) can be followed below.

Molecules are shown by their SMILES.

The test system of experiment [1] is Mre11. Nature of the experiment: Colocalization of Mre11 with γ-H2AX foci at gemcitabine-stalled replication forks. The format is cell-based, human. To be noted: Hep3B. The text has this:
(§1) FIGS. 15A-15D provide inhibition of Mre11 and Rad51 recruitment at gemcitabine-stalled replication forks by hyperthermia. (15A) Hep3B cells were exposed to hyperthermia and/or gemcitabine. (15B) and (15C) Mre11 and Rad51 were recruited at gemcitabine-stalled replication forks. […] Scale bar=10 μm. (15D) Quantification of data from colocalization experiments. Data are mean Pearson correlation (a.u.) and error bars represent the SD from three independent experiments with 10 replicates each (*P<0.05, **P<0.01). Gem=Gemcitabine; HT=Hyperthermia; N/A=not applicable, i.e., in hyperthermia treated cells BrdU staining is not detected as distinct foci and therefore correlation could not be quantified; ns=not significant, by the Student unpaired two-sided t test in comparison with gemcitabine alone group. Also, see FIGS. 22-24. […]
(§2) For immunocytochemistry assay, an indirect immunofluorescence approach was used. […] Cells from an exponentially growing culture were counted and approximately 50,000 cells were seeded in each well of a 12-well plate. […]
(§3) The slides were sealed with a conventional nail polish hardener and stored at 4° C. until imaging. […] Exposure settings were set to maximize dynamic range initially and then kept constant across multiple samples to allow quantitative comparisons. […]

Experiment [2] has as its system Rad51. Description: Colocalization of Rad51 with γ-H2AX foci at gemcitabine-stalled replication forks. The format is cell-based, human. To be noted: Hep3B.
From the text: as §1, §2, §3

[3] abbreviates: hyperthermia 42.5° C. 75 minutes then gemcitabine 10 μg/ml.

For the compound `Nc1ccn([C@@H]2O[C@H](CO)[C@@H](O)C2(F)F)c(=O)n1` [gemcitabine, 2′,2′-difluoro 2′-deoxycytidine], the “mean Pearson correlation, Mre11 with γ-H2AX foci” value was found to be 0.37 in experiment [1] (gemcitabine alone (10 μg/ml)) and 0.23 in experiment [1] (setting [3]). Also, the “mean Pearson correlation, Rad51 with γ-H2AX foci” value stood at 0.24 in experiment [2] (gemcitabine alone (10 μg/ml)) and 0.44 in experiment [2] (setting [3]).
